Reference: ChEMBL document CHEMBL2074496, “Altered drug disposition of the platelet activating factor antagonist apafant in mdr1a knockout mice” (Eur J Pharm Sci, 2002)

Assays:
[1] = molecular target: ATP-dependent translocase ABCB1 (Mus musculus, UniProt P21447); assay: TP_TRANSPORTER: increase in brain concentration in mdr1a(-/-) mouse; format: functional, organism-based; details: in vivo
[2] = molecular target: ATP-dependent translocase ABCB1 (Homo sapiens, UniProt P08183); assay: TP_TRANSPORTER: transepithelial transport (basal to apical) in Caco-2 cells; format: functional, cell-based
ATP-dependent translocase ABCB1 (Homo sapiens, UniProt P08183), sequence (P08183 whole entry): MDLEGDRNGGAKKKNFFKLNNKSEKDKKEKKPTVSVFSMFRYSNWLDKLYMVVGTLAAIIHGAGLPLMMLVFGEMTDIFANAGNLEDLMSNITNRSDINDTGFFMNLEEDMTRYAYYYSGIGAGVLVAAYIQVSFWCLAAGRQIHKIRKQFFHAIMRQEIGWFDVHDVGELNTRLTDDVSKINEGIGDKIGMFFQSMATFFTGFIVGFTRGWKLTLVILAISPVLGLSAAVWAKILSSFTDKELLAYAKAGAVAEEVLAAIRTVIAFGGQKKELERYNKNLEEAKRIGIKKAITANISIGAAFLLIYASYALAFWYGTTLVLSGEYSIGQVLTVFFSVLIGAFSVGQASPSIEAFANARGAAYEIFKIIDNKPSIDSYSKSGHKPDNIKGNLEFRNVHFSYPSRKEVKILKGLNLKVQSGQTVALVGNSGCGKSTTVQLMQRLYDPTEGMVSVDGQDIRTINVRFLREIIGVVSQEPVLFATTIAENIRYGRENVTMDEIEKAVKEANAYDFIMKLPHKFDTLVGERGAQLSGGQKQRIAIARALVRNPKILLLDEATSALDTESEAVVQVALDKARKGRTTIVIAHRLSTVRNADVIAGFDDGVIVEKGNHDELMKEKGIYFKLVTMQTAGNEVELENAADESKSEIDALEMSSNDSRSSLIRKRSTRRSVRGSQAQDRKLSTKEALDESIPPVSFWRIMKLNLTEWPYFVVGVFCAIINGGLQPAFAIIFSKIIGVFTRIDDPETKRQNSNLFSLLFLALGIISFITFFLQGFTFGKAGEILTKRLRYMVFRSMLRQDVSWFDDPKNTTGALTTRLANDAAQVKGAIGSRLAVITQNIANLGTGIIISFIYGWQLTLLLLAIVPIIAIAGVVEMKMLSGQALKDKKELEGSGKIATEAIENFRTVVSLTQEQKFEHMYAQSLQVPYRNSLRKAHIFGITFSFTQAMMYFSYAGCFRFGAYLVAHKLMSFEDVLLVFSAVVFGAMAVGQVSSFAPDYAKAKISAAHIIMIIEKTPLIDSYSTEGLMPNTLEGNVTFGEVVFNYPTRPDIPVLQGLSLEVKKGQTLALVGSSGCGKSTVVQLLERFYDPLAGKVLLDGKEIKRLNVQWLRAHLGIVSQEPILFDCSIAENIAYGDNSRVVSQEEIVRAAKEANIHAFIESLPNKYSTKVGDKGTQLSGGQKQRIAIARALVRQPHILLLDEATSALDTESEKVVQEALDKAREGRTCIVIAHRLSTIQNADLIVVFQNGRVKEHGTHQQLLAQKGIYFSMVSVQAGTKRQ

ATP-dependent translocase ABCB1 (Mus musculus, UniProt P21447), sequence (P21447 whole entry): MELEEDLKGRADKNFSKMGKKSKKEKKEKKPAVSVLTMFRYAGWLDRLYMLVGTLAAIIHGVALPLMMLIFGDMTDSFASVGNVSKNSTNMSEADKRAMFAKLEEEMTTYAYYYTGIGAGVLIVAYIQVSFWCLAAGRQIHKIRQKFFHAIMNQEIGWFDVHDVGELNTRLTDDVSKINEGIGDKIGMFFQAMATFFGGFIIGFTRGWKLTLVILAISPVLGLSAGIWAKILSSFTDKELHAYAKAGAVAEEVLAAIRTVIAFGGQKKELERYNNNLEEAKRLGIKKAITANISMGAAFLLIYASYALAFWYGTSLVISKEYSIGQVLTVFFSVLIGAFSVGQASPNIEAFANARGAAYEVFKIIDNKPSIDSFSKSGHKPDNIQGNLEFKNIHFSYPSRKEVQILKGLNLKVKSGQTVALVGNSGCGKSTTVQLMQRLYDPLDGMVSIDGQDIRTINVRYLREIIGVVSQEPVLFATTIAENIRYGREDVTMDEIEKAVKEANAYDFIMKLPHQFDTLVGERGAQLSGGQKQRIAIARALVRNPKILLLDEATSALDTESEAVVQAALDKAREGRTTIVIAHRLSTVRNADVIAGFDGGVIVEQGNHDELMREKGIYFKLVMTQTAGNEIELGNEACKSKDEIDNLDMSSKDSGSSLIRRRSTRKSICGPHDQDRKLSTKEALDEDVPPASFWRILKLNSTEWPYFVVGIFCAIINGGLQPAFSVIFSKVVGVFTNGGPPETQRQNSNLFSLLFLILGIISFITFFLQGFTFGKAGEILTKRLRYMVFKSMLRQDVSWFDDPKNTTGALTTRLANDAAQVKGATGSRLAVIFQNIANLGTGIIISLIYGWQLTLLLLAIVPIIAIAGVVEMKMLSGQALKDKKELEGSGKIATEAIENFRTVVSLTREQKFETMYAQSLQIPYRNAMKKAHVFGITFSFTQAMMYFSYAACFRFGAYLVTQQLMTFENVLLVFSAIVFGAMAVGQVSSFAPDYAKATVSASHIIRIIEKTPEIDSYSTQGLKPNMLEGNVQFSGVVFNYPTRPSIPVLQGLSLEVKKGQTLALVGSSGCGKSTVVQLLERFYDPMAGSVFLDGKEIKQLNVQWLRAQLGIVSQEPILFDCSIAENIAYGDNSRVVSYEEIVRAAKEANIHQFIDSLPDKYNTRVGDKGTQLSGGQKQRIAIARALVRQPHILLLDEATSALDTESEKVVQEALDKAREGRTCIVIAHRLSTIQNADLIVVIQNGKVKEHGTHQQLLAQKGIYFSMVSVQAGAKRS

Cc1nnc2n1-c1sc(CCC(=O)N3CCOCC3)cc1C(c1ccccc1Cl)=NC2 [APAFANT]
Activity [1]: substrate [+] | Activity [2]: substrate [+]
